What was measured:
RAS mRNA = assay: Reduction of RAS mRNA in Drosophila pupae, measured by RT-PCR (2-ΔΔCt method); assay type: in vivo; details: 24 mM in culture medium, 5 days culture, 40 pupae, GAPDH internal reference, versus normal medium control
Protocol: The molecular weight of 1-methyl-4-phenyl-1,2,3,6-tetrahydropyridine is 173.25 g/mol. 1.7325 g of the compound was accurately weighed, dissolved in 10 mL of DMSO solution to prepare a 1 M mother liquid for later use.
The preparation of a normal culture medium: 0.53 g of agar and 1.6 g of yeast extraction powder was added to 50 mL H2O. The mixture obtained was heated until boiling. Then, 0.43 g of NaKT, 0.033 g of anhydrous CaCl2, 1.58 g of sucrose, 3.17 g of glucose, and 3.88 g of corn flour (pre-mixed thoroughly with cold water to prevent agglomeration) were added to the mixture, and was brought to boil before stopping heating. The final mixture was transferred in aliquots into a number of culture tubes with a diameter of 25 mm and a volume of 5-8 mL. The filled culture tubes were sterilized at high temperature (30 min, 116° C.), followed by cooling to around 50° C. […]
In the present invention, the content of RAS mRNA was measured by RT-PCR. […] After the amplification, the relative expression level of K-RAS in Drosophila was determined by the 2-ΔΔCt method.
After culturing in the normal culture medium (as a control group) and a culture medium doped by 24 mM of 1-methyl-4-phenyl-1,2,3,6-tetrahydropyridine (as a test group) for 5 days, 40 pupae were taken from each of the culture tubes used for the test. […] The relative amount of RAS mRNA was determined by the above method.

[1] = test system: L185+L186 Drosophila tumor model; assay: Inhibition of tumors in GFP-scrib-/- Drosophila tumor model (GFP fluorescence, live imaging); assay type: in vivo, Drosophila melanogaster; details: oral administration of 24 mM in doped culture medium, 5 days, 80 pupae; without compound 2.37×10^9 μW/cm^2
Source text: A green fluorescent protein (GFP)-tagged FLP/FRT recombinant system and scrib/TM6B balanced Drosophila melanogaster strain were used for hybridization to obtain a GFP-scrib−/− chimeric tumorigenesis model (L185+L186), wherein the GFP expression is in linkage with tumorigenesis. The preparation of a normal culture medium and a doped culture medium was the same as in embodiment 1. After culturing in the normal culture medium and the doped culture medium for 5 days, 80 pupae were taken from the culture tubes used for the test and washed twice with PBS (phosphate buffered saline solution). The pupae were neatly arranged on slides and were then transferred to an ice box to freeze for 2 hours. The pupae were observed under an IVIS Lumina X5 live imaging system (excitation light wavelength 450-490 nm, the same hereafter), images were taken, and the expression of the green fluorescent protein was evaluated.

Structure (SMILES): CN1CC=C(c2ccccc2)CC1 [1-methyl-4-phenyl-1,2,3,6-tetrahydropyridine]
- reduction of RAS mRNA level (RAS mRNA): 3.5 folds
- absolute value of the fluorescence of the Drosophila tumor model [1]: 3.5×10^8 μW/cm^2

Reference: patent publication US20200085805A1, “METHOD FOR TREATING CANCER RELATED TO ACTIVATION OF RAS GENE IN SUBJECT” (priority 2018, published 2020)
